The text below walks through data of US20120201908A1, “METHOD OF TREATING BIPOLAR DISORDER OR DEPRESSION USING AN ANTIESTROGEN” (Lunera Equities, LLLP, priority 2009, published 2012).

The test system of series [1] is symptoms of bipolar disorder. In words: Pilot study Subject E: tamoxifen citrate added to bipolar medication, mood charts and psychiatrist visits. In kind it is in vivo, human. The text has this: Subject E is a person and an insulin dependent diabetic. Subject E was diagnosed with bipolar disorder at […]. They have had surgery in the past for their knees, their neck and stitches for their head. Subject E has been institutionalized multiple times within the last nine years for their own protection. To date, no medications have seemed to help. Subject also has a history of alcoholism. Some complexity was expected in treatment due to diabetes.

Series [2] deals with symptoms of bipolar disorder (bipolar I). In words: Pilot study Subject D: tamoxifen citrate added to bipolar medication, mood charts and psychiatrist visits. In kind it is in vivo, human. The text has this: Subject D is a person with a family history of bipolar disorder. Although Subject D had symptoms spanning Asperger's Syndrome, Bipolar I, Obsessive-Compulsive Disorder, Oppositional Defiant Disorder and anti-social traits, bipolar I was the diagnosis for several reasons, including the fact that it was present on both sides of the family and the symptoms were better suited to a bipolar diagnosis.
First visit: Day 1. Due to Subject D's extreme condition, past hospitalizations and the complicated mixture of medications, the psychiatrist spent approximately one hour with the subject. […] Subject D was also given a copy of the Gary Sach's Mood Chart for the subject and their parent to be filled out daily for the psychiatrist's weekly review.

In series [3] the test system is symptoms of bipolar disorder (bipolar disorder II). In words: Case report Subject B: antiestrogen to treat symptoms of bipolar disorder. It is filed as in vivo, human. The protocol: Subject B is a person in good general physical health with a family history of bipolar disorder. Subject B underwent Cholecystectomy. Subject B was diagnosed with Meniere's Syndrome. Subject B was diagnosed with bipolar disorder II, at which time Lamictal was prescribed by a psychiatrist. […] The psychiatrist then prescribed Effexor XR® (venlafaxine hydrochloride) 75 mg/daily. […] A general physician prescribed 1.5 mg/Klonopin® (Clonazepam) daily.
Subject B also remained mentally alert and stable. […] Currently, Subject B remains stable and emotionally level.
Subject B's spouse states that Subject B is much more level, enjoys their life to a new degree, no longer loses control or becomes violent without warning. The entire family feels that life is much easier since Subject B began taking the antiestrogen.

Series [4] relates to symptoms of acute/severe depression. As to the kind of experiment: Case report Subject C: antiestrogen in descending daily dosing to treat acute/severe depression. It is filed as in vivo, human. The text has this: Subject C is a person in good general physical health with no previous history of mental illness or depression. Subject C was prescribed Dapsone as a child in order to treat to treat dermititis herpetiformis. Subject C received no medication in the past four years. In December 2008, Subject C became lethargic, uninterested in usually pleasurable activities, restless, and began oversleeping. After a full month, symptoms of depression became extreme and subject C was thought to be in danger of becoming suicidal.
Subject C's last dose was 2.5 mg on the fifth day.
Suicidal thoughts returned and Subject C considered dropping out of law school. Subject C started a descending dose course of Arimidex®; starting with a single dose of 1 mg on day one. Again, symptoms of depression faded noticeably within 8 hours, in a manner similar to that in response to treatment with tamoxifen. Subject C took single daily doses of Arimidex®; 0.5 mg on day two; 0.25 mg each on days three and four.

The subject of series [5] is symptoms of bipolar disorder (bipolar disorder I). As to the kind of experiment: Case report Subject A: antiestrogen to treat symptoms of bipolar disorder. The conditions noted are these: for effect of earlier medication on bipolar mood swings / side effects / reason for discontinuation of earlier medication: medication history before the antiestrogen.
Experimental: (§1) The following list describes the drugs that were tried in combination with Eskalith: • 1. Depakote® (Divalproex Sodium Delayed Release Tablets) 50 mg daily. […] Tegretol XR® (Carbamazepine) 200 mg twice daily. […] Risperdal® (Risperidone) 3 mg per day. […] Prozac® (Olanzapine and Fluoxetine hydrochloride) 20 mg twice daily. […] Klonopin® (Clonazepam): originally from 2002 to 2009 was 8 mg to 10 mg daily for generalized anxiety. […] Lamictal® (Lamotrigine) Titration schedule over five weeks up to 250 mg twice daily.
Series [6] shares this test system. The note with it: human, in vivo.
Experimental: as §1
In series [7] the test system is protein kinase C alpha and epsilon isozymes. The note with it: rat frontal cortex and hippocampus; Manji et al. 1999; cited from earlier work.
The conditions of series [8]: in vivo; cited from earlier work.

Each structure is given as a SMILES string. Entries after “also recorded” stand apart in the source; their conditions may differ. Structures can show the parent of a compound that is named as a salt. Where two headings read alike, the source gives them in different places.

`O=C1CCc2ccc(OCCCCN3CCN(c4cccc(Cl)c4Cl)CC3)cc2N1` [Abilify, Aripiprazole]: the “mood after self-discontinuing Abilify” value in series [1] (Day 27, Abilify 5 mg qd not taken for 7 days) was “experienced some depression and mild anxiety and irritability”. Further, in series [1] (Day 34, Abilify 5 mg qd), the “mood after resuming Abilify” value was “much better week”.
For `CC1=C(/C=C/C(C)=C/C=C/C(C)=C\C(=O)O)C(C)(C)CCC1` [Accutane], the “depression under Accutane” value in series [2] (Day 95, Accutane 30 mg qd with tamoxifen citrate 30 mg qd) is recorded as “still shows no signs of depression”.
Regarding `Cc1ccc(-c2nc3ccc(C)cn3c2CC(=O)N(C)C)cc1` [Ambien], the sleep entry in series [2] (Day 95, Ambien sample for trial) is reported as “helped their sleeping”.
For `CC(C)(C#N)c1cc(Cn2cncn2)cc(C(C)(C)C#N)c1` [Arimidex, anastrozole], the “response when Arimidex replaces tamoxifen citrate” value in series [3] (Arimidex 0.25-1 mg used interchangeably with tamoxifen citrate 10 mg every other day) is given as “without change in response; also recorded: work equally as well”. In series [4], the “symptom-free period after the course” value was “After five months, Subject C remains free of symptoms of depression”. Moreover, the “time to lessening of symptoms of depression after the first dose” value in series [4] (single dose on day one: tamoxifen citrate 20 mg or Arimidex 1 mg) was not above 8 h. Further, in series [4] (tamoxifen citrate 20/10/5/2.5/2.5 mg days 1-5, Arimidex 1/0.5/0.25/0.25 mg days 1-4), the “symptoms of depression after the descending dose course” value is given as “Symptoms of depression were substantially alleviated after day four”. For the same molecule, in series [5] (Arimidex 1 mg once a day, within a week of starting), the “severity of bipolar episodes and symptoms” value is “episodes and symptoms became less severe”. Moreover, in series [5] (tamoxifen citrate 20 mg base equivalents or Arimidex 1 mg, once every day or every other day), the “mood swings with the antiestrogen as only bipolar medication” value is given as “controls mood swings without the concurrent use of other bipolar medication; also recorded: mood swings became virtually non-existent”. Also, the “frequency of bipolar cycles” value in series [5] (while taking Arimidex 1 mg once a day) is “cycles were less frequent”.
`CCCC(CCC)C(=O)O` [Depakote, Divalproex Sodium]: in series [6], the “side effects / reason for discontinuation of earlier medication” value (“side effects / reason” for short) is on record as “heavy side effects”. Further, the “protein kinase C alpha and epsilon isozymes” value in series [7] was “reduction in protein kinase C alpha and epsilon isozymes”.
Consider `COc1ccc(C(CN(C)C)C2(O)CCCCC2)cc1` (centres unmarked) [Effexor XR, venlafaxine hydrochloride], for which, in series [3] (Lamictal 10-12 weeks, Effexor XR 75 mg/daily for three days), the “side effects / reason” value is “lack of sleep, extreme mania, high anxiety and hyperactivity”.
Turning to `O=C([O-])[O-].[Li+].[Li+]` [Eskalith, Lithium Carbonate], the “protein kinase C alpha and epsilon isozymes” value in series [7] is “reduction in protein kinase C alpha and epsilon isozymes”. Further, in series [5], the “effect of earlier medication on bipolar mood swings” value (“effect of earlier medication” below) is recorded as “slowed the swings, but did not change the severity of either the depressive or manic episodes” and the “side effects / reason” value is “damage to the thyroid”.
Take `CN(C)CCCN1c2ccccc2CCc2ccccc21` [Imipramine hydrochloride]: the “side effects / reason” value in series [6] is “extreme hand tremors”. Also, the “effect of earlier medication” value in series [5] is recorded as “continued to have bipolar swings”.
In the case of `Nc1nnc(-c2cccc(Cl)c2Cl)c(N)n1` [Lamictal, Lamotrigine], the “side effects / reason” value in series [6] is recorded as “worsening skin condition; aggravated linear IgA dermatosis”. For the same molecule, the “patients who develop a rash” value in series [8] is listed as 5-10%. Further, the “effect of earlier medication” value in series [5] was “Mood swings were more frequent without Lamictal”.
On to `CCCCCCCCCC(=O)O[C@H]1CC[C@H]2[C@@H]3CCC4=CC(=O)CC[C@@H]4[C@H]3CC[C@]12C` [Nandrolone deconate], for which the “side effects / reason” value in series [5] is on record as “Erythrocytosis”.
Consider `C[C@]12C=CC(=O)C=C1CC[C@@H]1[C@@H]2C(=O)C[C@@]2(C)[C@H]1CC[C@]2(O)C(=O)CO` [Prednisone], for which the “side effects / reason” value in series [6] is “made all physical and mental conditions worse”.
On the same count and under the same terms, then `Cc1nc2n(c(=O)c1CCN1CCC(c3noc4cc(F)ccc34)CC1)CCCC2` [Risperdal, Risperidone], with “inability to work or function to a satisfactory level”; and `OCCOCCN1CCN(C2=Nc3ccccc3Sc3ccccc32)CC1` [Seroquel, quetiapine fumarate], with “extreme tiredness and inability to function”.
Turning to `NC(=O)N1c2ccccc2C=Cc2ccccc21` [Tegretol XR, Carbamazepine], in series [6], the “side effects / reason” value is “hand and body tremors, as well as slurring of speech and numb feeling tongue”. Moreover, the “effect of earlier medication” value in series [5] is “Worked for a few weeks”.
As for `CC(NC(C)(C)C)C(=O)c1cccc(Cl)c1` (centres unmarked) [Wellbutrin, bupropion hydrochloride], in series [6], the “side effects / reason” value was “dulled their mind and slowed their thinking”.
